What is called IC50 is the concentration that inhibits the measured activity by half. As usually defined, the viability, T/C is the result in the treated group divided by that in the control group, in per cent.

We go through four molecules from PubChem BioAssay AID2060508 (Molecular Pharmacology Branch, DTP, NCI, 2025).

Some results are limits rather than exact numbers.
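Note: spheroids exposed to compounds for seven days.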
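Throughout, for viability, T/C: 100% = DMSO vehicle control viability.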

The first test has as its system 454973-116-R2-J3-PDC spheroids, viability, % test/control. As to the kind of experiment: Anticancer human tumor 454973-116-R2-J3-PDC patient-derived pancreatic carcinoma cell line growth inhibition [GQUAD]. As to conditions: curve of first compound; second compound 0.0316 µM; spheroids with HUVEC and MSC. The method in brief:
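Tumor cells were grown as complex spheroids with HUVEC endothelial cells and mesenchymal stem cells as stroma. G-quadruplex stabilizers were combined with targeted agents over half-log dilutions from near the clinical Cmax, or from 10 microM.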
For `CC1COCCN1c1cc(-c2ccnn2C)c2ccnc(-c3ccn[nH]3)c2n1` (configuration not stated) + Cc1cnc(CNC(=O)c2c(=O)c3ccc(N4CCCN(C)CC4)nc3n3c2sc2ccccc23)cn1, the half-maximal inhibitory concentration (IC50) stood at 42.3 nM.
On to `CC1COCCN1c1cc(C2(O)CC3CCC(C2)O3)c2cnn(-c3ccn[nH]3)c2n1` (configuration not stated) + Cc1cnc(CNC(=O)c2c(=O)c3ccc(N4CCCN(C)CC4)nc3n3c2sc2ccccc23)cn1, for which the IC50 is 31.8 nM.
Still for that read-out and setting: in the case of `CC1COCCN1c1cc(C2(S(C)(=N)=O)CC2)nc(-c2ccnc3[nH]ccc23)n1` (configuration not stated) + Cc1cnc(CNC(=O)c2c(=O)c3ccc(N4CCCN(C)CC4)nc3n3c2sc2ccccc23)cn1 it was 2560 nM.
Turning to `COc1ccc([C@@H](O)c2cc(-c3ncnc4cc(N5CCOCC5)ccc34)c(F)cc2Cl)nn1` + Cc1cnc(CNC(=O)c2c(=O)c3ccc(N4CCCN(C)CC4)nc3n3c2sc2ccccc23)cn1, the IC50 was 814 nM.

Staying with this test, now noted: curve of first compound; second compound 0.1 µM; spheroids with HUVEC and MSC.
As to `CC1COCCN1c1cc(-c2ccnn2C)c2ccnc(-c3ccn[nH]3)c2n1` (configuration not stated) + Cc1cnc(CNC(=O)c2c(=O)c3ccc(N4CCCN(C)CC4)nc3n3c2sc2ccccc23)cn1, the IC50 is < 31.6 nM.
As for `CC1COCCN1c1cc(C2(O)CC3CCC(C2)O3)c2cnn(-c3ccn[nH]3)c2n1` (configuration not stated) + Cc1cnc(CNC(=O)c2c(=O)c3ccc(N4CCCN(C)CC4)nc3n3c2sc2ccccc23)cn1, the 50% inhibitory concentration (IC50) is < 31.6 nM.
On to `CC1COCCN1c1cc(C2(S(C)(=N)=O)CC2)nc(-c2ccnc3[nH]ccc23)n1` (configuration not stated) + Cc1cnc(CNC(=O)c2c(=O)c3ccc(N4CCCN(C)CC4)nc3n3c2sc2ccccc23)cn1, for which the IC50 was 1420 nM.
Still for that read-out and setting: in the case of `COc1ccc([C@@H](O)c2cc(-c3ncnc4cc(N5CCOCC5)ccc34)c(F)cc2Cl)nn1` + Cc1cnc(CNC(=O)c2c(=O)c3ccc(N4CCCN(C)CC4)nc3n3c2sc2ccccc23)cn1 it was 269 nM.

The same test, now with this note: curve of first compound; second compound 0.316 µM; spheroids with HUVEC and MSC.
Regarding `CC1COCCN1c1cc(-c2ccnn2C)c2ccnc(-c3ccn[nH]3)c2n1` (configuration not stated) + Cc1cnc(CNC(=O)c2c(=O)c3ccc(N4CCCN(C)CC4)nc3n3c2sc2ccccc23)cn1, the IC50 was < 31.6 nM.
`CC1COCCN1c1cc(C2(O)CC3CCC(C2)O3)c2cnn(-c3ccn[nH]3)c2n1` (configuration not stated) + Cc1cnc(CNC(=O)c2c(=O)c3ccc(N4CCCN(C)CC4)nc3n3c2sc2ccccc23)cn1: the IC50 was < 31.6 nM.
Same read-out and setting: the same measure for `CC1COCCN1c1cc(C2(S(C)(=N)=O)CC2)nc(-c2ccnc3[nH]ccc23)n1` (configuration not stated) + Cc1cnc(CNC(=O)c2c(=O)c3ccc(N4CCCN(C)CC4)nc3n3c2sc2ccccc23)cn1: 957 nM; for `COc1ccc([C@@H](O)c2cc(-c3ncnc4cc(N5CCOCC5)ccc34)c(F)cc2Cl)nn1` + Cc1cnc(CNC(=O)c2c(=O)c3ccc(N4CCCN(C)CC4)nc3n3c2sc2ccccc23)cn1: 416 nM.

Staying with this test, now noted: curve of first compound; second compound 1 µM; spheroids with HUVEC and MSC.
Turning to `CC1COCCN1c1cc(-c2ccnn2C)c2ccnc(-c3ccn[nH]3)c2n1` (configuration not stated) + Cc1cnc(CNC(=O)c2c(=O)c3ccc(N4CCCN(C)CC4)nc3n3c2sc2ccccc23)cn1, the IC50 was < 31.6 nM.
Consider `CC1COCCN1c1cc(C2(O)CC3CCC(C2)O3)c2cnn(-c3ccn[nH]3)c2n1` (configuration not stated) + Cc1cnc(CNC(=O)c2c(=O)c3ccc(N4CCCN(C)CC4)nc3n3c2sc2ccccc23)cn1, for which the IC50 is < 31.6 nM.
The same measure, in the same setting: in the case of `CC1COCCN1c1cc(C2(S(C)(=N)=O)CC2)nc(-c2ccnc3[nH]ccc23)n1` (configuration not stated) + Cc1cnc(CNC(=O)c2c(=O)c3ccc(N4CCCN(C)CC4)nc3n3c2sc2ccccc23)cn1 it was 1470 nM.
For the molecule `COc1ccc([C@@H](O)c2cc(-c3ncnc4cc(N5CCOCC5)ccc34)c(F)cc2Cl)nn1` + Cc1cnc(CNC(=O)c2c(=O)c3ccc(N4CCCN(C)CC4)nc3n3c2sc2ccccc23)cn1, the IC50 was 530 nM.

The test is the same for the next values; noted with them: curve of first compound; second compound 3.16 µM; spheroids with HUVEC and MSC.
Consider `CC1COCCN1c1cc(-c2ccnn2C)c2ccnc(-c3ccn[nH]3)c2n1` (configuration not stated) + Cc1cnc(CNC(=O)c2c(=O)c3ccc(N4CCCN(C)CC4)nc3n3c2sc2ccccc23)cn1, for which the IC50 was < 31.6 nM.
For the molecule `CC1COCCN1c1cc(C2(O)CC3CCC(C2)O3)c2cnn(-c3ccn[nH]3)c2n1` (configuration not stated) + Cc1cnc(CNC(=O)c2c(=O)c3ccc(N4CCCN(C)CC4)nc3n3c2sc2ccccc23)cn1, the IC50 was < 31.6 nM.
As to `CC1COCCN1c1cc(C2(S(C)(=N)=O)CC2)nc(-c2ccnc3[nH]ccc23)n1` (configuration not stated) + Cc1cnc(CNC(=O)c2c(=O)c3ccc(N4CCCN(C)CC4)nc3n3c2sc2ccccc23)cn1, the half-maximal inhibitory concentration (IC50) was 1060 nM.
Consider `COc1ccc([C@@H](O)c2cc(-c3ncnc4cc(N5CCOCC5)ccc34)c(F)cc2Cl)nn1` + Cc1cnc(CNC(=O)c2c(=O)c3ccc(N4CCCN(C)CC4)nc3n3c2sc2ccccc23)cn1, for which the IC50 is 578 nM.

Staying with this test, now noted: curve of first compound; second compound 10 µM; spheroids with HUVEC and MSC.
For `CC1COCCN1c1cc(-c2ccnn2C)c2ccnc(-c3ccn[nH]3)c2n1` (configuration not stated) + Cc1cnc(CNC(=O)c2c(=O)c3ccc(N4CCCN(C)CC4)nc3n3c2sc2ccccc23)cn1, the IC50 was < 31.6 nM.
Same read-out and setting: the same measure for `CC1COCCN1c1cc(C2(O)CC3CCC(C2)O3)c2cnn(-c3ccn[nH]3)c2n1` (configuration not stated) + Cc1cnc(CNC(=O)c2c(=O)c3ccc(N4CCCN(C)CC4)nc3n3c2sc2ccccc23)cn1: < 31.6 nM; for `CC1COCCN1c1cc(C2(S(C)(=N)=O)CC2)nc(-c2ccnc3[nH]ccc23)n1` (configuration not stated) + Cc1cnc(CNC(=O)c2c(=O)c3ccc(N4CCCN(C)CC4)nc3n3c2sc2ccccc23)cn1: < 31.6 nM; for `COc1ccc([C@@H](O)c2cc(-c3ncnc4cc(N5CCOCC5)ccc34)c(F)cc2Cl)nn1` + Cc1cnc(CNC(=O)c2c(=O)c3ccc(N4CCCN(C)CC4)nc3n3c2sc2ccccc23)cn1: < 31.6 nM.

The same test, now with this note: second compound 0.0316 µM; first compound 0.0316 µM; stronger effect = lower value; spheroids with HUVEC and MSC.
Turning to `CC1COCCN1c1cc(-c2ccnn2C)c2ccnc(-c3ccn[nH]3)c2n1` (configuration not stated) + Cc1cnc(CNC(=O)c2c(=O)c3ccc(N4CCCN(C)CC4)nc3n3c2sc2ccccc23)cn1, the viability, T/C was 58.3%.
Still for that read-out and setting: the same measure for `CC1COCCN1c1cc(C2(O)CC3CCC(C2)O3)c2cnn(-c3ccn[nH]3)c2n1` (configuration not stated) + Cc1cnc(CNC(=O)c2c(=O)c3ccc(N4CCCN(C)CC4)nc3n3c2sc2ccccc23)cn1: 50.7%; for `CC1COCCN1c1cc(C2(S(C)(=N)=O)CC2)nc(-c2ccnc3[nH]ccc23)n1` (configuration not stated) + Cc1cnc(CNC(=O)c2c(=O)c3ccc(N4CCCN(C)CC4)nc3n3c2sc2ccccc23)cn1: 104%.
Same read-out and setting: in the case of `COc1ccc([C@@H](O)c2cc(-c3ncnc4cc(N5CCOCC5)ccc34)c(F)cc2Cl)nn1` + Cc1cnc(CNC(=O)c2c(=O)c3ccc(N4CCCN(C)CC4)nc3n3c2sc2ccccc23)cn1 it was 104%.

Staying with this test, now noted: second compound 0.0316 µM; first compound 0.1 µM; stronger effect = lower value; spheroids with HUVEC and MSC.
In the case of `CC1COCCN1c1cc(-c2ccnn2C)c2ccnc(-c3ccn[nH]3)c2n1` (configuration not stated) + Cc1cnc(CNC(=O)c2c(=O)c3ccc(N4CCCN(C)CC4)nc3n3c2sc2ccccc23)cn1, the viability, T/C is 26.2%.
With `CC1COCCN1c1cc(C2(O)CC3CCC(C2)O3)c2cnn(-c3ccn[nH]3)c2n1` (configuration not stated) + Cc1cnc(CNC(=O)c2c(=O)c3ccc(N4CCCN(C)CC4)nc3n3c2sc2ccccc23)cn1, the viability, T/C was 27.5%.
On the same count and under the same terms, the same measure for `CC1COCCN1c1cc(C2(S(C)(=N)=O)CC2)nc(-c2ccnc3[nH]ccc23)n1` (configuration not stated) + Cc1cnc(CNC(=O)c2c(=O)c3ccc(N4CCCN(C)CC4)nc3n3c2sc2ccccc23)cn1: 95.5%; for `COc1ccc([C@@H](O)c2cc(-c3ncnc4cc(N5CCOCC5)ccc34)c(F)cc2Cl)nn1` + Cc1cnc(CNC(=O)c2c(=O)c3ccc(N4CCCN(C)CC4)nc3n3c2sc2ccccc23)cn1: 88.2%.

Staying with this test, now noted: second compound 0.0316 µM; first compound 0.316 µM; stronger effect = lower value; spheroids with HUVEC and MSC.
Turning to `CC1COCCN1c1cc(-c2ccnn2C)c2ccnc(-c3ccn[nH]3)c2n1` (configuration not stated) + Cc1cnc(CNC(=O)c2c(=O)c3ccc(N4CCCN(C)CC4)nc3n3c2sc2ccccc23)cn1, the viability, T/C was 17.6%.
For `CC1COCCN1c1cc(C2(O)CC3CCC(C2)O3)c2cnn(-c3ccn[nH]3)c2n1` (configuration not stated) + Cc1cnc(CNC(=O)c2c(=O)c3ccc(N4CCCN(C)CC4)nc3n3c2sc2ccccc23)cn1, the viability, T/C was 19.5%.
As for `CC1COCCN1c1cc(C2(S(C)(=N)=O)CC2)nc(-c2ccnc3[nH]ccc23)n1` (configuration not stated) + Cc1cnc(CNC(=O)c2c(=O)c3ccc(N4CCCN(C)CC4)nc3n3c2sc2ccccc23)cn1, the viability, T/C was 96.6%.
For the molecule `COc1ccc([C@@H](O)c2cc(-c3ncnc4cc(N5CCOCC5)ccc34)c(F)cc2Cl)nn1` + Cc1cnc(CNC(=O)c2c(=O)c3ccc(N4CCCN(C)CC4)nc3n3c2sc2ccccc23)cn1, the viability, T/C was 72.3%.

The same test, now with this note: second compound 0.0316 µM; first compound 1 µM; stronger effect = lower value; spheroids with HUVEC and MSC.
On to `CC1COCCN1c1cc(-c2ccnn2C)c2ccnc(-c3ccn[nH]3)c2n1` (configuration not stated) + Cc1cnc(CNC(=O)c2c(=O)c3ccc(N4CCCN(C)CC4)nc3n3c2sc2ccccc23)cn1, for which the viability, T/C was 18.5%.
For the molecule `CC1COCCN1c1cc(C2(O)CC3CCC(C2)O3)c2cnn(-c3ccn[nH]3)c2n1` (configuration not stated) + Cc1cnc(CNC(=O)c2c(=O)c3ccc(N4CCCN(C)CC4)nc3n3c2sc2ccccc23)cn1, the viability, T/C is 20.4%.
In the case of `CC1COCCN1c1cc(C2(S(C)(=N)=O)CC2)nc(-c2ccnc3[nH]ccc23)n1` (configuration not stated) + Cc1cnc(CNC(=O)c2c(=O)c3ccc(N4CCCN(C)CC4)nc3n3c2sc2ccccc23)cn1, the viability, T/C was 79.2%.
`COc1ccc([C@@H](O)c2cc(-c3ncnc4cc(N5CCOCC5)ccc34)c(F)cc2Cl)nn1` + Cc1cnc(CNC(=O)c2c(=O)c3ccc(N4CCCN(C)CC4)nc3n3c2sc2ccccc23)cn1: the viability, T/C is 43.9%.

The test is the same for the next values; noted with them: second compound 0.0316 µM; first compound 3.16 µM; stronger effect = lower value; spheroids with HUVEC and MSC.
As to `CC1COCCN1c1cc(-c2ccnn2C)c2ccnc(-c3ccn[nH]3)c2n1` (configuration not stated) + Cc1cnc(CNC(=O)c2c(=O)c3ccc(N4CCCN(C)CC4)nc3n3c2sc2ccccc23)cn1, the viability, T/C was 21.3%.
As for `CC1COCCN1c1cc(C2(O)CC3CCC(C2)O3)c2cnn(-c3ccn[nH]3)c2n1` (configuration not stated) + Cc1cnc(CNC(=O)c2c(=O)c3ccc(N4CCCN(C)CC4)nc3n3c2sc2ccccc23)cn1, the viability, T/C was 18.7%.
